According to US20170122958A1, “Enzymes Functional Probes” (University of Dundee, priority 2013, published 2017):

Legend:
[1] = tested on: WT and mutants (Leu to Ala, Leu to Val and Leu to Ile) of Brd2(2); assay: ITC of compound into protein (FIG. 16); type: binding, human; settings: 250 μM compound into 25 μM protein; result in words
Protocol: To investigate the utility of the new compounds further, the inventors performed isothermal titration experiments by titrating 250 μM compound solutions (AL, ME-Am1, ET-Am1, ME-Am2, ET-Am2, 9-ME, 9-ET, 9-ME-Am1 and 9-ET-Am1) 25 μM protein solutions (WT and mutants (Leu to Ala, Leu to Val and Leu to Ile) of Brd2(2)).
ITC experiments were carried out on a ITC200 instrument from MicroCal™ Experiments were conducted at 3 different temperatures 15° C., 25° C. and 30° C., while stirring at 1000 rpm. Buffers of proteins, peptide and compounds were matched to 20 mM HEPES pH 7.5 at 25° C. and 100 mM NaCl. Frozen protein was buffer exchanged as described for the DSF experiments. Each titration comprised 1 initial injection of 0.4 μl lasting 0.8 s, followed by 19 injections of 2 μl lasting 4 s each at 2 min intervals. The initial injection was discarded during data analysis. Standard and reverse titrations were conducted depending on the binding partners.
All the data was fitted to a single binding site model using the Microcal LLC ITC200 Origin software provided by the manufacturer to yield enthalpies of binding (ΔH) and binding constants (Kas). Further thermodynamic parameters were calculated from these values (changes in entropy ΔS, changes in free energy AG and dissociation constants (Kds)).

[2] = target: T1, Brd2(1) (Homo sapiens, UniProt P25440); assay: DSF thermal shift; type: binding; settings: wild type
T1 construct: Plasmids of the eight single BET bromodomain constructs Brd2(1), Brd2(2), Brd3(1), Brd3(2); His6 (N); made in house; host or cells: E. coli BL21(DE3)
T1 sequence (P25440 74-180 limits assumed): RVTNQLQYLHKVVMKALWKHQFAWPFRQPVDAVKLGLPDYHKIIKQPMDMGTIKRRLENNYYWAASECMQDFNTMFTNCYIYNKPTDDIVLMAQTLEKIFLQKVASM
Protocol: (§1) DSF assays were performed on a LightCycler®480 from Roche or a Mx3005P Real Time PCR machine from Stratagene. […] SYPRO®Orange from Invitrogen Molecular Probes® was used as a reporter dye to monitor the denaturing process of the proteins. Samples were assayed on a 96-well plate with final protein concentrations of 2 μM for the LightCycler®480 and 6 μM for Mx3005P. Compounds were added at a final concentration of 10 μM for the LightCycler®480 and 30 μM for Mx3005P, while the tetra acetylated histone peptide was added to a final concentration of 100 μM and 300 μM respectively. […] The temperature was raised with a step of 0.6° C. per minute from 37° C. to 95° C. with the LightCycler®480 collecting 39 measurements per ° C., and 1° C. per minute from 25° C. to 95° C. with Mx3005P, collecting fluorescence readings at the end of each interval. Each sample was run in triplicates.
(§2) Collected data was analysed by IGOR Pro 6, a scientific software tool from Wave Metrics, Inc. Analysis was done following the recommendations of Niesen et al.. Fluorescence intensity was plotted as a function of temperature, generating a sigmoidal curve described by a two-state transition from folded to unfolded protein. Curves were fitted by the following sigmoidal equation: […]
(§3) A1 and A2 are the values of minimum and maximum intensities, respectively, x0 is the inflection point and dx is the rate. Fitted curves were differentiated in IGOR Pro 6 and the maximum of the first derivative was identified using the same program. These values correspond to the inflection points of the transition curves and thus to the melting temperatures of the proteins (Tm).

[3] = target: T2, Brd2(2) (Homo sapiens, UniProt P25440); assay: DSF thermal shift; type: binding; settings: wild type
T2 construct: Plasmids of the eight single BET bromodomain constructs Brd2(1), Brd2(2), Brd3(1), Brd3(2); His6 (N); made in house; host or cells: E. coli BL21(DE3)
T2 sequence (P25440 344-453 limits assumed): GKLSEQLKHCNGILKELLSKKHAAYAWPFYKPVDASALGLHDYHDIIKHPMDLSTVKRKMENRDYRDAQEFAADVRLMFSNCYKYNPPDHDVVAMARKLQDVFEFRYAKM
Protocol: as §1, §2, §3

[4] = target: T3, Brd2(2)*(Met438-Ala) (Homo sapiens, UniProt P25440, M438A); assay: DSF thermal shift; type: binding; settings: mutant
T3 construct: Plasmids of the eight single BET bromodomain constructs Brd2(1), Brd2(2), Brd3(1), Brd3(2); His6 (N); made in house; host or cells: E. coli BL21(DE3)
T3 sequence (P25440 344-453 M438A limits assumed): as the sequence (P25440 344-453 limits assumed) above, with M95A counted along it
Protocol: (§4) DSF assays were performed on a LightCycler®480 from Roche or a Mx3005P Real Time PCR machine from Stratagene. Prior to DSF assays, frozen proteins were buffer exchanged using Vivaspin®6 concentrators with a 10 kDa cutoff on a Centrifuge 5430 from Eppendorf at a speed of 6000×g to remove glycerol and to buffer the proteins in 20 mM HEPES pH 7.5 at 25° C. and 100 mM NaCl. SYPRO®Orange from Invitrogen Molecular Probes® was used as a reporter dye to monitor the denaturing process of the proteins. Samples were assayed on a 96-well plate with final protein concentrations of 2 μM for the LightCycler®480 and 6 μM for Mx3005P. Compounds were added at a final concentration of 10 μM for the LightCycler®480 and 30 μM for Mx3005P, while the tetra acetylated histone peptide was added to a final concentration of 100 μM and 300 μM respectively. […] The temperature was raised with a step of 0.6° C. per minute from 37° C. to 95° C. with the LightCycler®480 collecting 39 measurements per ° C., and 1° C. per minute from 25° C. to 95° C. with Mx3005P, collecting fluorescence readings at the end of each interval. Each sample was run in triplicates.
as §2, §3

[5] = target: T4, Brd2(1)*(Met165-Leu) (Homo sapiens, UniProt P25440, M165L); assay: DSF thermal shift; type: binding; settings: mutant
T4 construct: Plasmids of the eight single BET bromodomain constructs Brd2(1), Brd2(2), Brd3(1), Brd3(2); His6 (N); made in house; host or cells: E. coli BL21(DE3)
T4 sequence (P25440 74-180 M165L limits assumed): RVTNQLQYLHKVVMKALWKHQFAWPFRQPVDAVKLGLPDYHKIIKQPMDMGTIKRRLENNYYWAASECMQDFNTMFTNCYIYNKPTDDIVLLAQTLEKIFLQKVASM
Protocol: as §4, §2, §3

[6] = target: T5, Brd2(2)*(Met438-Leu) (Homo sapiens, UniProt P25440, M438L); assay: DSF thermal shift; type: binding; settings: mutant
T5 construct: Plasmids of the eight single BET bromodomain constructs Brd2(1), Brd2(2), Brd3(1), Brd3(2); His6 (N); made in house; host or cells: E. coli BL21(DE3)
T5 sequence (P25440 344-453 M438L limits assumed): as the sequence (P25440 344-453 limits assumed) above, with M95L counted along it
Protocol: as §4, §2, §3

[7] = target: Brd2(1)*(Met165Ala) (Homo sapiens, UniProt P25440, M165A); assay: DSF thermal shift; type: binding; design: Plasmids of the eight single BET bromodomain constructs Brd2(1), Brd2(2), Brd3(1), Brd3(2); His6 (N); made in house; host or cells: E. coli BL21(DE3); settings: mutant
Sequence of Brd2(1)*(Met165Ala) (P25440 74-180 M165A limits assumed): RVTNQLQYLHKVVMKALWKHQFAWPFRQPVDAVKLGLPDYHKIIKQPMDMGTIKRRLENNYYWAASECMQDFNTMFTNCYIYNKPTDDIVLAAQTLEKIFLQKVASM
Protocol: as §4, §2, §3

[8] = target: T6, Brd2(1)*(Trp097Phe) (Homo sapiens, UniProt P25440, W97F); assay: DSF thermal shift; type: binding; settings: mutant
T6 construct: Plasmids of the eight single BET bromodomain constructs Brd2(1), Brd2(2), Brd3(1), Brd3(2); His6 (N); made in house; host or cells: E. coli BL21(DE3)
T6 sequence (P25440 74-180 W97F limits assumed): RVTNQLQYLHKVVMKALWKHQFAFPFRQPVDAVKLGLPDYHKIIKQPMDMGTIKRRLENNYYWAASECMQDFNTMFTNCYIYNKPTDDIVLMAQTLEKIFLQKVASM
Protocol: as §1, §2, §3

[9] = target: T7, Brd2(1)*(Trp097His) (Homo sapiens, UniProt P25440, W97H); assay: DSF thermal shift; type: binding; settings: mutant
T7 construct: Plasmids of the eight single BET bromodomain constructs Brd2(1), Brd2(2), Brd3(1), Brd3(2); His6 (N); made in house; host or cells: E. coli BL21(DE3)
T7 sequence (P25440 74-180 W97H limits assumed): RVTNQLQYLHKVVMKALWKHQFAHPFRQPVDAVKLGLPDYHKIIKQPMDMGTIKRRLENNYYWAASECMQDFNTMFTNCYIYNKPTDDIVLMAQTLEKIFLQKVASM
Protocol: as §1, §2, §3

[10] = target: T8, Brd2(2)*(Trp370Phe) (Homo sapiens, UniProt P25440, W370F); assay: DSF thermal shift; type: binding; settings: mutant
T8 construct: Plasmids of the eight single BET bromodomain constructs Brd2(1), Brd2(2), Brd3(1), Brd3(2); His6 (N); made in house; host or cells: E. coli BL21(DE3)
T8 sequence (P25440 344-453 W370F limits assumed): as the sequence (P25440 344-453 limits assumed) above, with W27F counted along it
Protocol: as §1, §2, §3

[11] = target: T9, Brd2(2)*(Trp370His) (Homo sapiens, UniProt P25440, W370H); assay: DSF thermal shift; type: binding; settings: mutant
T9 construct: Plasmids of the eight single BET bromodomain constructs Brd2(1), Brd2(2), Brd3(1), Brd3(2); His6 (N); made in house; host or cells: E. coli BL21(DE3)
T9 sequence (P25440 344-453 W370H limits assumed): as the sequence (P25440 344-453 limits assumed) above, with W27H counted along it
Protocol: as §1, §2, §3

Structure (SMILES): C=CC[C@@H](C(=O)OC)[C@@H]1N=C(c2ccc(Cl)cc2)c2cc(OC)ccc2-n2c(C)nnc21 (racemic) [AL, (+−)methyl (R)-2-((S)-6-(4-chlorophenyl)-8-methoxy-1-methyl-4H-benzo[f][1,2,4]triazolo[4,3-a][1,4]diazepin-4-yl)pent-4-enoate]
- Selectivity for Brd2(2) mutants relative to wild type by ITC (FIG. 16) [1]: higher selectivity for the mutants relative to wild types

Structure (SMILES): CC[C@@H](C(=O)OC)[C@@H]1N=C(c2ccc(Cl)cc2)c2ccc(OC)cc2-n2c(C)nnc21 (racemic) [Compound 9-ET, (+−) methyl (R)-2-((S)-6-(4-chlorophenyl)-9-methoxy-1-methyl-4H-benzo[f][1,2,4]triazolo[4,3-a][1,4]diazepin-4-yl)butanoate]
- Selectivity for Brd2(2) mutants relative to wild type by ITC (FIG. 16) [1]: higher selectivity for the mutants relative to wild types

Structure (SMILES): COC(=O)[C@H](C)[C@@H]1N=C(c2ccc(Cl)cc2)c2ccc(OC)cc2-n2c(C)nnc21 (racemic) [Compound 9-ME, (+−) methyl (R)-2-((S)-6-(4-chlorophenyl)-9-methoxy-1-methyl-4H-benzo[f][1,2,4]triazolo[4,3-a][1,4]diazepin-4-yl)propanoate]
- Selectivity for Brd2(2) mutants relative to wild type by ITC (FIG. 16) [1]: higher selectivity for the mutants relative to wild types

Structure (SMILES): CCNC(=O)[C@H](C)[C@@H]1N=C(c2ccc(Cl)cc2)c2ccc(OC)cc2-n2c(C)nnc21 (racemic) [Compound 9-ME-Am1, (+−) (R)-2-((S)-6-(4-chlorophenyl)-9-methoxy-1-methyl-4H-benzo[f][1,2,4]triazolo[4,3-a][1,4]diazepin-4-yl)-N-ethylpropanamide]
- Selectivity for Brd2(2) mutants relative to wild type by ITC (FIG. 16) [1]: higher selectivity for the mutants relative to wild types

Structure (SMILES): CCNC(=O)[C@H](CC)[C@@H]1N=C(c2ccc(Cl)cc2)c2cc(OC)ccc2-n2c(C)nnc21 (racemic) [ET-Am1, (+−) (R)-2-((S)-6-(4-chlorophenyl)-8-methoxy-1-methyl-4H-benzo[f][1,2,4]triazolo[4,3-a][1,4]diazepin-4-yl)-N-ethylbutanamide]
- Selectivity for Brd2(2) mutants relative to wild type by ITC (FIG. 16) [1]: higher selectivity for the mutants relative to wild types

Structure (SMILES): CC[C@@H](C(=O)N(CC)CC)[C@@H]1N=C(c2ccc(Cl)cc2)c2cc(OC)ccc2-n2c(C)nnc21 (racemic) [ET-Am2, (+−) (R)-2-((S)-6-(4-chlorophenyl)-8-methoxy-1-methyl-4H-benzo[f][1,2,4]triazolo[4,3-a][1,4]diazepin-4-yl)-N,N-diethylbutanamide]
- Selectivity for Brd2(2) mutants relative to wild type by ITC (FIG. 16) [1]: higher selectivity for the mutants relative to wild types

Structure (SMILES): CCNC(=O)[C@H](C)[C@@H]1N=C(c2ccc(Cl)cc2)c2cc(OC)ccc2-n2c(C)nnc21 (racemic) [ME-Am1, (+−) (R)-2-((S)-6-(4-chlorophenyl)-8-methoxy-1-methyl-4H-benzo[f][1,2,4]triazolo[4,3-a][1,4]diazepin-4-yl)-N-ethylpropanamide]
- Selectivity for Brd2(2) mutants relative to wild type by ITC (FIG. 16) [1]: higher selectivity for the mutants relative to wild types

Structure (SMILES): CCN(CC)C(=O)[C@H](C)[C@@H]1N=C(c2ccc(Cl)cc2)c2cc(OC)ccc2-n2c(C)nnc21 (racemic) [ME-Am2, (+−) (R)-2-((S)-6-(4-chlorophenyl)-8-methoxy-1-methyl-4H-benzo[f][1,2,4]triazolo[4,3-a][1,4]diazepin-4-yl)-N,N-diethylpropanamide]
- Selectivity for Brd2(2) mutants relative to wild type by ITC (FIG. 16) [1]: higher selectivity for the mutants relative to wild types

Structure (SMILES): COc1ccc(S(=O)(=O)Nc2ccc3c(c2)CN(C)C(=O)N3)c(OC)c1 [Compound 54, 2,4-dimethoxy-N-(3-methyl-2-oxo-1,2,3,4-tetrahydroquinazolin-6-yl)benzenesulfonamide]
- ΔTm Brd2(1) [2]: 2.4 ± 0.2 K
- ΔTm Brd2(2) [3]: 1.6 ± 0.2 K
- ΔTm Brd2(2)*(Met165-Ala) [4]: 2.3 ± 0.1 K
- ΔTm Brd2(1)*(Met165-Leu) [5]: 2.7 ± 0.3 K
- ΔTm Brd2(2)*(Met165-Leu) [6]: 2.4 ± 0.4 K
- ΔTm Brd2(1)*(Met165-Ala) [7]: 1.5 ± 0.2 K

Structure (SMILES): COc1ccccc1S(=O)(=O)Nc1ccc2c(c1)CN(C)C(=O)N2 [PFI-1, reference compound]
- ΔTm Brd2(1)*(Tryp097-Phe) [8]: 2.6 ± 0.4 K
- ΔTm Brd2(1)*(Tryp097-His) [9]: 1.9 ± 0.5 K
- ΔTm Brd2(1) [2]: 4.5 ± 0.3 K
- ΔTm Brd2(2)*(Tryp370-Phe) [10]: 2.9 ± 0.3 K
- ΔTm Brd2(2) [3]: 4.5 ± 0.2 K
- ΔTm Brd2(2)*(Tryp370-His) [11]: 1.8 ± 0.0 K
- ΔTm Brd2(2)*(Met165-Ala) [4]: 1.7 ± 0.1 K
- ΔTm Brd2(1)*(Met165-Leu) [5]: 1.3 ± 0.3 K
- ΔTm Brd2(2)*(Met165-Leu) [6]: 2.1 ± 0.3 K
- ΔTm Brd2(1)*(Met165-Ala) [7]: 1.6 ± 0.1 K
